Structures can show the parent of a compound that is named as a salt.
How the values were obtained:
[1] = target: Fibrinogen binding to human thrombocytes; assay: Fibrinogen binding to human thrombocytes; details: 125I fibrinogen; gel-filtered human platelets; ADP; 20 minutes at ambient temperature; read-out: Fibrinogen binding test IC50
Method: Fibrinogen binding to human thrombocytes The blood obtained by puncturing an antecubital vein is anticoagulated with trisodium citrate (final concentration: 13 mM) and centrifuged for 10 minutes at 170 xg. The supernatant platelet-rich plasma is poured onto a Sepharose 2B column (Pharmacia) and eluted with a solution of 90 mM common salt, 14 mM trisodium citrate, 5 mM glucose and 50 mM Tris(hydroxymethyl)aminomethane, adjusted to pH 7.4. The gel-filtered platelets (GFP) appearing before the plasma proteins are used for the binding experiments. 50 μl of a 60 mM calcium chloride solution, 50 μl of a 0.6 mM adenosine diphosphate solution, 100 μl of substance solution or solvent and 50 μl of fibrinogen solution (containing 3 μg of ^125 I fibrinogen) are added to 750 μl of GFP and incubated for 20 minutes at ambient temperature. The non-specific binding is determined in the presence of 3 mg/ml of cold fibrinogen. 900 μl of the incubated material are carefully pipetted onto 250 μl of silicon oil (AP 38: AR 20, 1:2 v/v, Wacker Chemie) in Eppendorf tubes and centrifuged for 2 minutes at 10,000 xg. The aqueous supernatant and some of the oil are drawn off, the tips of the tubes are cut off together with the platelet pellet and the quantity of bound fibrinogen is determined in a gamma counter. The concentration of substance which brings about a 50% inhibition in fibrinogen binding is determined from a series of concentrations and is given as the IC50 value.

[2] = test system: thrombocyte (platelet) aggregation; assay: Antithrombotic activity: collagen-induced thrombocyte aggregation in platelet rich plasma (Born and Cross); type: cell-based; details: Homo sapiens, platelet rich plasma from healthy test subjects, 10 minutes at 37° C. preincubation, 50% change in optical density, read-out: Inhibition of platelet aggregation EC50
Method: 2. Antithrombotic activity Method: Thrombocyte aggregation is measured in platelet rich plasma from healthy test subjects using the Born and Cross method (J. Physiol. 170, 397 (1964)). In order to inhibit coagulation the blood is mixed with sodium citrate 3.14% in a ratio by volume of 1:10. Collagen-induced aggregation: The course of the decrease in optical density of the platelet suspension is photometrically measured and recorded after the addition of the substance which triggers aggregation. The rate of aggregation is deduced from the gradient angle of the density curve. The point on the curve where there is maximum transmittance is used to calculate the optical density. The quantity of collagen used is as little as possible but sufficient to give an irreversible reaction curve. Standard commercial collagen produced by Hormonchemie of Munich is used. Before the addition of the collagen the plasma is incubated for 10 minutes at 37° C. with the substance. From the measurements obtained, an EC50 is determined graphically, relating to a 50% change in optical density in terms of the inhibition of aggregation.

mice = assay: tolerability after intravenous administration in mice; type: in vivo; details: for sedation during the injection phase: mouse, in vivo, iv, 30 mg/kg
[3] = test system: collagen-induced thrombocyte aggregation; assay: collagen-induced thrombocyte aggregation ex vivo in Rhesus monkeys after oral administration; details: oral administration of 1 mg/kg
Method: Moreover, the compound of Example 8(5) inhibits the collagen-induced thrombocyte aggregation ex vivo in Rhesus monkeys, for example, after oral administration of 1 mg/kg for longer than 8 hours.

rat = assay: tolerability after peroral administration in the rat; type: in vivo; details: 2.0 g/kg
mouse = assay: tolerability after peroral administration in the mouse; type: in vivo; details: 2.0 g/kg

SMILES	IC50 [1] [µM]	EC50 [2] [µM]	further results
N=C(N)c1ccc(-c2ccc(NC(=O)CCCC(=O)O)cc2)cc1 [1(1), 4-amidino-4'-(4-carboxybutyrylamino) biphenyl]	0.16	1.1	sedation during the injection phase (mice): 1 or 2 animals were sedated
COC(=O)CC1CCN(C(=O)c2ccc(-c3ccc(C(=N)NC(=O)OC)cc3)cc2)CC1 [Example 8(5), 4-(N-methoxycarbonylamidino)-4'-[(4-methoxycarbonylmethylpiperidino)carbonyl]biphenyl]	–	–	duration of inhibition of collagen-induced thrombocyte aggregation ex vivo [3]: > 8 h; toxic effects (rat): no toxic effects were observed; toxic effects (mouse): no toxic effects were observed
COC(=O)Cc1cccc(NC(=O)c2ccc(-c3ccc(C(=N)N)cc3)cc2)c1 [6(4), 4-amidino-4'-[[3-(methoxycarboxylmethyl)phenyl]-aminocarbonyl]biphenyl hydrochloride]	47	4.4	–
COC(=O)CN1CCN(C(=O)c2ccc(-c3ccc(C(=N)N)cc3)cc2)CC1 [6(74), 4-amidino-4'-[(4-methoxycarbonylmethylpiperazino)-carbonyl]biphenyl dihydrochloride]	24	3.2	–
COc1ccc(CCNC(=O)C(CC(=O)O)NC(=O)Cc2ccc(-c3ccc(C(=N)N)cc3)cc2)cc1.Cl (stereo not shown) [2(11), 4-amidino-4'-[[2-carboxy-1-[[2-(4-methoxyphenyl)-ethyl]aminocarbonyl]ethylamino]carbonylmethyl]biphenyl hydrochloride]	0.36	2.2	sedation during the injection phase (mice): 1 or 2 animals were sedated
COC(=O)C1CCCN(C(=O)COc2ccc(-c3ccc(C(=N)N)cc3)cc2)C1 (stereo not shown) [6(49), 4-amidino-4'-[[(3-methoxycarbonylpiperidino)-carbonyl]methyloxy]biphenyl hydrochloride]	32	36	–
Cl.N=C(N)c1ccc(-c2ccc(C(=O)N3CCC(CC(=O)O)CC3)cc2)cc1 [Example 1(39), 4-amidino-4'-[(4-carboxymethylpiperidino)-carbonyl]biphenyl hydrochloride]	0.024	0.1	animals died (mice; mice, intravenous, 60 mg/kg, three animals tested): none of the three animals tested died

More lines, main results first:

IC50 [1] [µM]	SMILES	EC50 [2] [µM]	further results
14	COC(=O)CNC(=O)COc1ccc(-c2ccc(C(=N)N)cc2)cc1 [6(2), 4-amidino-4'-[[(4-methoxycarbonylmethyl)-aminocarbonyl]methyloxy]biphenyl hydrochloride]	40	–
5.2	COC(=O)CCCOc1ccc(-c2ccc(C(=N)N)cc2)cc1 [6(8), 4-amidino-4'-(3-methoxycarbonylpropyloxy)biphenyl dihydrogencarbonate]	3.4	–
0.8	NCc1ccc(-c2ccc(C(=O)N3CCC(CC(=O)O)CC3)cc2)cc1 [10(1), 4-aminomethyl-4'-[(4-carboxymethylpiperidino)-carbonyl]biphenyl hydrochloride]	1.8	–
5.6	COC(=O)CCCC(=O)Nc1ccc(-c2ccc(C(=N)N)cc2)cc1 [6(1), 4-amidino-4'-(4-methoxycarbonylbutyrylamino)-biphenyl hydrochloride]	3.7	–
7.4	COC(=O)CCCCNC(=O)c1ccc(-c2ccc(C(=N)N)cc2)cc1 [6(72), 4-amidino-4'-[(4-methoxycarbonylbutyl)amino-carbonyl]biphenyl hydrochloride]	3.4	–
0.97	COC(=O)CCCCOc1ccc(-c2ccc(C(=N)N)cc2)cc1 [6(9), 4-amidino-4'-(4-methoxycarbonylbutyloxy)biphenyl hydrochloride]	1.3	–
3.8	COC(=O)C1CCC(NC(=O)c2ccc(-c3ccc(C(=N)N)cc3)cc2)CC1 (stereo not shown) [6(87), 4-amidino-4'-[(4-methoxycarbonylcyclohexyl)-aminocarbonyl]biphenyl hydrochloride]	0.06	–
1.3	COc1ccc(CCNC(=O)C(CC(=O)O)NC(=O)CNC(=O)c2ccc(-c3ccc(C(=N)N)cc3)cc2)cc1 (stereo not shown) [Example 3, 4-Amidino-4'-[[[2-carboxy-1-[[2-(4-methoxyphenyl)-ethyl]aminocarbonyl]ethylamino]carbonylmethyl]-aminocarbonyl]biphenyl hydrochloride]	16	–

From patent publication US5736559A, “Biphenyl derivatives, pharmaceutical compositions containing these compounds and processes for preparing them” (Karl Thomae GmbH, priority 1991, dated 1998)
